# What was measured:
# CCL22 = assay: Example 2: serum chemokine/cytokine levels; assay type: in vivo, human; settings: days 8 and 29 of therapy
# Description: (§1) A bone marrow biopsy and aspirate were collected for confirmatory purposes for all subjects who achieved a complete response (CR) or to confirm suspected PD based solely upon declines in the platelet count and/or hemoglobin. Pharmacodynamic assessments, including serum cytokines and protein phosphorylation in circulating CLL cells, occurred before starting therapy and at designated time points thereafter.
# [1] = test system: tumor necrosis factor alpha (TNF-α); assay: Example 2: serum chemokine/cytokine levels; assay type: in vivo, human; settings: days 8 and 29 of therapy
# Description: as §1
# CCL4 = assay: Example 2: serum levels of BCR-induced chemokines; assay type: in vivo, human; settings: days 8 and 29 of treatment
# Description: as §1
# CCL3 = assay: Example 2: serum levels of BCR-induced chemokines; assay type: in vivo, human; settings: days 8 and 29 of treatment
# Description: as §1
# human subjects with CLL = assay: Example 1: investigator assessed nodal response in CLL subjects; assay type: in vivo; settings: CLL subjects (n=29); 800 mg BID fasting
# Description: The sample size was 10-40/arm.
# [2] = test system: subjects with relapsed or refractory CLL
# Procedure: The safety and efficacy of entospletinib was tested in a phase 2 trial in separate cohorts of subjects with CLL, indolent non-Hodgkin lymphoma (iNHL), mantle cell lymphoma (MCL), or diffuse large B-cell lymphoma (DLBCL). This trial was registered at www.clinicaltrials.gov as #NCT01799889.
# A phase 2, open-label, single-agent study was completed to evaluate the efficacy, safety, tolerability, and pharmacodynamics of entospletinib in subjects with relapsed or refractory hematologic malignancies.
# Subjects who were at least 18 years of age with a documented diagnosis of CLL, as established by the International Workshop on CLL, with progressive disease (PD) were eligible for the study. […] The presence of radiographically measurable lymphadenopathy or extranodal lymphoid malignancy as assessed by computed tomography (CT) or magnetic resonance imaging (MRI) was required for enrollment. […] A Karnofsky performance status of at least 60% and a life expectancy of at least 3 months were required. Required screening laboratory data were collected within 5 weeks before administration of study drug. Subjects with any degree of neutropenia, thrombocytopenia, or anemia attributed to the malignancy by the treating physician were eligible to enroll.
# Treatment with entospletinib was at a dose of 800 mg twice a day over 28-day cycles under fasted conditions. Fasting was defined as no food or liquids other than water for 2 hours pre- and 1 hour post-dose.
# CT or MRI scans were used to document sites of disease, identify target lesions, and assess response and disease progression. […] The findings of an independent review committee were used for analyses of PFS and other tumor control end points.
# Secondary end points included tolerability, objective response rate (ORR), duration of response (DOR), time to response, and lymph node response rate. […] Exploratory end points included plasma drug concentrations and pharmacodynamic biomarkers.
# PFS was defined as the interval from start of treatment to disease progression or death from any cause and analyzed using Kaplan-Meier methods. The findings of the Independent Review Committee (IRC) were considered primary for analyses of PFS and other tumor control responses. […] DOR was defined as the time from when the first response (CR or PR) was achieved until the earlier of the first documentation of definitive disease progression or death from any cause.
# [3] = test system: CCL3/MIP1alpha, CCL4/MIP1beta, CCL22/MDC, and TNFalpha; assay: Example 1: plasma chemokine/cytokine levels by Luminex immunoassays; assay type: in vivo, human; settings: Days 8 and 29 vs Day 1; CLL subjects (n=20)
# Description: FIG. 9 summarizes the inhibition of BCR-mediated chemokine/cytokines after treatment in CLL subjects.
# [4] = test system: phosphorylated Syk in CD19+CD5+ circulating tumor cells; assay: Example 1: BCR-mediated signaling, intracellular phosphoprotein flow cytometry; assay type: in vivo, human; settings: Days 8 and 29 vs Day 1; CLL subjects (n=35)
# Description: (§2) Nominal p-values from tests of mean change of Day 8 and 29 from Day 1 using mixed model for repeated measures are <0.0005.
# [5] = test system: phosphorylated Blnk in CD19+CD5+ circulating tumor cells; assay: as above; assay type: in vivo, human; settings: Days 8 and 29 vs Day 1; CLL subjects (n=35)
# Description: as §2
# [6] = test system: phosphorylated Btk in CD19+CD5+ circulating tumor cells; assay: as above; assay type: in vivo, human; settings: Days 8 and 29 vs Day 1; CLL subjects (n=35)
# Description: as §2
compound,measurement,setting,value
"c1cn2cc(-c3ccc4cn[nH]c4c3)nc(Nc3ccc(N4CCOCC4)cc3)c2n1 [compound of formula I, 6-(1H-indazol-6-yl)-N-(4-morpholinophenyl)imidazo[1,2-a]pyrazin-8-amine]",Serum levels of CCL22,CCL22,inhibited
same,Serum levels of tumor necrosis factor alpha (TNF-α),[1],inhibited
same,serum levels of BCR-induced CCL4,CCL4,Significant reductions
same,serum levels of BCR-induced CCL3,CCL3,Significant reductions
same,overall nodal response rate,human subjects with CLL,69%
same,DOR exceeded by seventy-five percent of subjects,[2]; 23 responding CLL subjects,> 6.5 months
same,median DOR,[2]; 23 responding CLL subjects,not yet been reached
same,subjects achieving at least a 50% decrease in SPD from baseline,[2]; 39 evaluable CLL subjects,61.5%
same,subjects achieving reduction in adenopathy,[2]; 39 evaluable CLL subjects,94.5%
same,subjects with a less than 50% decrease in SPD from baseline,[2]; 39 evaluable CLL subjects,33%
same,"Discontinued study drug: AEs, %",[2]; CLL N = 41,(8.8%)
same,"Discontinued study drug: Death, %",[2]; CLL N = 41,(2.4%)
same,"Discontinued study drug: Progressive disease, %",[2]; CLL N = 41,(34.1%)
same,PFS exceeded by seventy-five percent of the subjects,[2]; CLL cohort,> 5.4 months
same,"death (PFS event), %","[2]; CLL cohort, 41 subjects",2.4%
same,"subjects with PFS events, %","[2]; CLL cohort, 41 subjects",31.7%
same,"subjects with disease progression, %","[2]; CLL cohort, 41 subjects",29.3%
same,24 weeks PFS (primary end point),"[2]; CLL cohort, 41 subjects, median follow up 5.5 months",69.8%
same,Median PFS,"[2]; CLL cohort, median follow up 5.5 months",not yet been reached
same,ORR,[2]; CLL subjects,56.1%
same,subjects achieving a CR,[2]; CLL subjects,no subject
same,subjects achieving a PR,[2]; CLL subjects,23 subjects
same,subjects with dose reduced to 400 mg,[2]; CLL subjects,4.9%
same,subjects with dose reduced to 600 mg,[2]; CLL subjects,14.6%
same,subjects with progressive disease (best response),[2]; CLL subjects,2.4%
same,subjects with stable disease,[2]; CLL subjects,44%
same,time for mean absolute lymphocyte count to return to baseline,[2]; CLL subjects,approximately 3 months
same,"nodal response (50% reduction in SPD) with persistent lymphocytosis, %",[2]; CLL subjects with stable disease,4.9%
same,"nodal response with persistent lymphocytosis, subjects","[2]; CLL subjects, additional to ORR",2 subjects
same,subjects requiring at least one dose reduction from the starting dose,"[2]; CLL subjects, starting dose 800 mg twice a day",19.5%
same,mean absolute lymphocyte count,"[2]; day 8, rose from 50,090","72,980 lymphocytes per microliter"
same,responding subjects with a PR at the first post-baseline evaluation,"[2]; of 23 responding subjects, scheduled at week 8",65.2%
same,differences in ORR within subgroups,"[2]; sex, age, number of prior therapies, IGHV mutation status, 17p deletion/TP53 mutation status",no significant differences
same,"BCR-mediated chemokine/cytokines, plasma levels",[3],inhibition
same,phosphorylated Syk in CD19+CD5+ circulating tumor cells,[4],downregulation
same,phosphorylated Blnk in CD19+CD5+ circulating tumor cells,[5],downregulation
same,phosphorylated Btk in CD19+CD5+ circulating tumor cells,[6],downregulation
